Laboratory results from the OligoGym collection.
HELM strings list units from the 5' end as sugar, base in round brackets, then linkage (d deoxyribose, r ribose, m 2'-O-methyl, p phosphodiester). Strings are as the collection lists them; they lack the last nucleoside at the 3' end of the tested compound. [moe] = 2'-O-(2-methoxyethyl) (MOE); [sp] = phosphorothioate linkage; [m5C] = 5-methylcytosine

Target: SMN2
Experiment: mouse, dose not given
Conditions: ASO

Substance | 3 h FOB score [score 0-7]
RNA1{[moe]([m5C])[sp].[moe](A)[sp].[moe]([m5C])[sp].[moe](T)[sp].[moe](T)[sp].[moe](T)[sp].[moe]([m5C])p.[moe](A)[sp].[moe](T)[sp].[moe](A)[sp].[moe](A)[sp].[moe](T)[sp].[moe](G)[sp].[moe]([m5C])[sp].[moe](T)p.[moe](G)[sp].[moe](G)}$$$$ (last 3' nucleoside missing) | 0
RNA1{[moe]([m5C])[sp].[moe](A)[sp].[moe]([m5C])[sp].[moe](T)[sp].[moe](T)[sp].[moe](T)[sp].[moe]([m5C])p.[moe](A)p.[moe](T)p.[moe](A)p.[moe](A)[sp].[moe](T)[sp].[moe](G)[sp].[moe]([m5C])[sp].[moe](T)[sp].[moe](G)[sp].[moe](G)}$$$$ (last 3' nucleoside missing) | 0
RNA1{[moe]([m5C])[sp].[moe](A)[sp].[moe]([m5C])[sp].[moe](T)[sp].[moe](T)[sp].[moe](T)[sp].[moe]([m5C])p.[moe](A)p.[moe](T)p.[moe](A)p.[moe](A)p.[moe](T)[sp].[moe](G)[sp].[moe]([m5C])[sp].[moe](T)[sp].[moe](G)[sp].[moe](G)}$$$$ (last 3' nucleoside missing) | 0
RNA1{[moe]([m5C])[sp].[moe](A)[sp].[moe]([m5C])[sp].[moe](T)[sp].[moe](T)[sp].[moe](T)[sp].[moe]([m5C])p.[moe](A)p.[moe](T)p.[moe](A)p.[moe](A)p.[moe](T)p.[moe](G)[sp].[moe]([m5C])[sp].[moe](T)[sp].[moe](G)[sp].[moe](G)}$$$$ (last 3' nucleoside missing) | 0
RNA1{[moe]([m5C])[sp].[moe](A)[sp].[moe]([m5C])[sp].[moe](T)[sp].[moe](T)[sp].[moe](T)p.[moe]([m5C])p.[moe](A)[sp].[moe](T)[sp].[moe](A)[sp].[moe](A)[sp].[moe](T)[sp].[moe](G)[sp].[moe]([m5C])[sp].[moe](T)[sp].[moe](G)[sp].[moe](G)}$$$$ (last 3' nucleoside missing) | 0
RNA1{[moe]([m5C])[sp].[moe](A)[sp].[moe]([m5C])[sp].[moe](T)[sp].[moe](T)[sp].[moe](T)p.[moe]([m5C])p.[moe](A)p.[moe](T)p.[moe](A)p.[moe](A)p.[moe](T)p.[moe](G)[sp].[moe]([m5C])[sp].[moe](T)[sp].[moe](G)[sp].[moe](G)}$$$$ (last 3' nucleoside missing) | 0
RNA1{[moe]([m5C])[sp].[moe](A)[sp].[moe]([m5C])[sp].[moe](T)[sp].[moe](T)p.[moe](T)[sp].[moe]([m5C])[sp].[moe](A)[sp].[moe](T)[sp].[moe](A)[sp].[moe](A)[sp].[moe](T)[sp].[moe](G)[sp].[moe]([m5C])[sp].[moe](T)[sp].[moe](G)[sp].[moe](G)}$$$$ (last 3' nucleoside missing) | 0.5
RNA1{[moe]([m5C])[sp].[moe](A)[sp].[moe]([m5C])[sp].[moe](T)[sp].[moe](T)p.[moe](T)[sp].[moe]([m5C])[sp].[moe](A)[sp].[moe](T)[sp].[moe](A)[sp].[moe](A)[sp].[moe](T)[sp].[moe](G)[sp].[moe]([m5C])[sp].[moe](T)p.[moe](G)[sp].[moe](G)}$$$$ (last 3' nucleoside missing) | 0
RNA1{[moe]([m5C])[sp].[moe](A)[sp].[moe]([m5C])[sp].[moe](T)[sp].[moe](T)p.[moe](T)p.[moe]([m5C])p.[moe](A)p.[moe](T)[sp].[moe](A)[sp].[moe](A)[sp].[moe](T)[sp].[moe](G)[sp].[moe]([m5C])[sp].[moe](T)[sp].[moe](G)[sp].[moe](G)}$$$$ (last 3' nucleoside missing) | 0
RNA1{[moe]([m5C])[sp].[moe](A)[sp].[moe]([m5C])[sp].[moe](T)p.[moe](T)p.[moe](T)[sp].[moe]([m5C])[sp].[moe](A)[sp].[moe](T)[sp].[moe](A)[sp].[moe](A)[sp].[moe](T)[sp].[moe](G)[sp].[moe]([m5C])[sp].[moe](T)[sp].[moe](G)[sp].[moe](G)}$$$$ (last 3' nucleoside missing) | 0
RNA1{[moe]([m5C])[sp].[moe](A)[sp].[moe]([m5C])p.[moe](T)[sp].[moe](T)[sp].[moe](T)[sp].[moe]([m5C])[sp].[moe](A)[sp].[moe](T)[sp].[moe](A)[sp].[moe](A)[sp].[moe](T)[sp].[moe](G)[sp].[moe]([m5C])[sp].[moe](T)[sp].[moe](G)[sp].[moe](G)}$$$$ (last 3' nucleoside missing) | 1
RNA1{[moe]([m5C])[sp].[moe](A)[sp].[moe]([m5C])p.[moe](T)[sp].[moe](T)[sp].[moe](T)[sp].[moe]([m5C])[sp].[moe](A)[sp].[moe](T)[sp].[moe](A)[sp].[moe](A)[sp].[moe](T)[sp].[moe](G)[sp].[moe]([m5C])[sp].[moe](T)p.[moe](G)[sp].[moe](G)}$$$$ (last 3' nucleoside missing) | 0
RNA1{[moe]([m5C])[sp].[moe](A)[sp].[moe]([m5C])p.[moe](T)[sp].[moe](T)[sp].[moe](T)[sp].[moe]([m5C])[sp].[moe](A)[sp].[moe](T)p.[moe](A)[sp].[moe](A)[sp].[moe](T)[sp].[moe](G)[sp].[moe]([m5C])[sp].[moe](T)p.[moe](G)[sp].[moe](G)}$$$$ (last 3' nucleoside missing) | 0
RNA1{[moe]([m5C])[sp].[moe](A)[sp].[moe]([m5C])p.[moe](T)p.[moe](T)p.[moe](T)p.[moe]([m5C])[sp].[moe](A)[sp].[moe](T)[sp].[moe](A)[sp].[moe](A)[sp].[moe](T)[sp].[moe](G)[sp].[moe]([m5C])[sp].[moe](T)[sp].[moe](G)[sp].[moe](G)}$$$$ (last 3' nucleoside missing) | 0
RNA1{[moe]([m5C])[sp].[moe](A)p.[moe]([m5C])[sp].[moe](T)[sp].[moe](T)[sp].[moe](T)[sp].[moe]([m5C])[sp].[moe](A)[sp].[moe](T)[sp].[moe](A)[sp].[moe](A)[sp].[moe](T)[sp].[moe](G)[sp].[moe]([m5C])[sp].[moe](T)p.[moe](G)[sp].[moe](G)}$$$$ (last 3' nucleoside missing) | 0
RNA1{[moe]([m5C])[sp].[moe](A)p.[moe]([m5C])[sp].[moe](T)[sp].[moe](T)[sp].[moe](T)[sp].[moe]([m5C])[sp].[moe](A)[sp].[moe](T)[sp].[moe](A)[sp].[moe](A)[sp].[moe](T)p.[moe](G)[sp].[moe]([m5C])[sp].[moe](T)[sp].[moe](G)[sp].[moe](G)}$$$$ (last 3' nucleoside missing) | 0
RNA1{[moe]([m5C])[sp].[moe](A)p.[moe]([m5C])[sp].[moe](T)[sp].[moe](T)[sp].[moe](T)[sp].[moe]([m5C])[sp].[moe](A)[sp].[moe](T)[sp].[moe](A)p.[moe](A)[sp].[moe](T)[sp].[moe](G)[sp].[moe]([m5C])[sp].[moe](T)[sp].[moe](G)[sp].[moe](G)}$$$$ (last 3' nucleoside missing) | 0
RNA1{[moe]([m5C])[sp].[moe](A)p.[moe]([m5C])[sp].[moe](T)[sp].[moe](T)[sp].[moe](T)[sp].[moe]([m5C])[sp].[moe](A)p.[moe](T)[sp].[moe](A)[sp].[moe](A)[sp].[moe](T)[sp].[moe](G)[sp].[moe]([m5C])[sp].[moe](T)[sp].[moe](G)[sp].[moe](G)}$$$$ (last 3' nucleoside missing) | 1
RNA1{[moe]([m5C])[sp].[moe](A)p.[moe]([m5C])[sp].[moe](T)[sp].[moe](T)[sp].[moe](T)p.[moe]([m5C])[sp].[moe](A)[sp].[moe](T)[sp].[moe](A)[sp].[moe](A)[sp].[moe](T)[sp].[moe](G)[sp].[moe]([m5C])[sp].[moe](T)[sp].[moe](G)[sp].[moe](G)}$$$$ (last 3' nucleoside missing) | 0
RNA1{[moe]([m5C])[sp].[moe](A)p.[moe]([m5C])[sp].[moe](T)p.[moe](T)[sp].[moe](T)[sp].[moe]([m5C])[sp].[moe](A)[sp].[moe](T)[sp].[moe](A)[sp].[moe](A)[sp].[moe](T)[sp].[moe](G)[sp].[moe]([m5C])[sp].[moe](T)[sp].[moe](G)[sp].[moe](G)}$$$$ (last 3' nucleoside missing) | 0
RNA1{[moe]([m5C])[sp].[moe](A)p.[moe]([m5C])p.[moe](T)[sp].[moe](T)[sp].[moe](T)[sp].[moe]([m5C])[sp].[moe](A)[sp].[moe](T)[sp].[moe](A)[sp].[moe](A)[sp].[moe](T)[sp].[moe](G)[sp].[moe]([m5C])[sp].[moe](T)[sp].[moe](G)[sp].[moe](G)}$$$$ (last 3' nucleoside missing) | 0
RNA1{[moe]([m5C])[sp].[moe](A)p.[moe]([m5C])p.[moe](T)[sp].[moe](T)[sp].[moe](T)[sp].[moe]([m5C])[sp].[moe](A)[sp].[moe](T)[sp].[moe](A)[sp].[moe](A)[sp].[moe](T)[sp].[moe](G)[sp].[moe]([m5C])p.[moe](T)p.[moe](G)[sp].[moe](G)}$$$$ (last 3' nucleoside missing) | 0
RNA1{[moe]([m5C])[sp].[moe](A)p.[moe]([m5C])p.[moe](T)p.[moe](T)[sp].[moe](T)[sp].[moe]([m5C])[sp].[moe](A)[sp].[moe](T)[sp].[moe](A)[sp].[moe](A)[sp].[moe](T)[sp].[moe](G)[sp].[moe]([m5C])p.[moe](T)p.[moe](G)[sp].[moe](G)}$$$$ (last 3' nucleoside missing) | 0
RNA1{[moe]([m5C])[sp].[moe](A)p.[moe]([m5C])p.[moe](T)p.[moe](T)[sp].[moe](T)[sp].[moe]([m5C])[sp].[moe](A)[sp].[moe](T)[sp].[moe](A)[sp].[moe](A)[sp].[moe](T)[sp].[moe](G)p.[moe]([m5C])p.[moe](T)p.[moe](G)[sp].[moe](G)}$$$$ (last 3' nucleoside missing) | 0
